Assay results reported in patent US20120083505A1, “Use of opioid receptor antagonists for acute treatment of paraphilic arousal states” (priority 2009, published 2012).

Columns and labels:
obsessive sexual desire = settings: two cases; regular fixed dosage regimen over a longer period; after several treatments; cited from earlier work
[1] = system: patients with paraphilic patterns of sexual excitation/arousal; assay: Case reports: acute nasal naloxone in two paedophilic patients, self-rated impulse control; format: in vivo, human; settings: one or two puffs of nasal spray, 0.2 mg Naloxonhydrochloride per puff
Description: In the clinical application (two patients with paraphilic patterns of sexual excitation/arousal, both paedophiles, but with individual symptomatology) the following observations were made:
The patient is a person with paedophile inclination towards sexually immature girls (in addition to their predominant orientation towards adult women). In their first marriage they had repeatedly abused the child of their spouse […] (touching the genitals of the child, as well as having themself touched until reaching the climax). These crimes have not yet become known or led to any form of legal prosecution, and this first marriage is divorced since several years. Owing to their job as music teacher the patient was increasingly in contact with girls of the preferred age during the recent two years; the patient was very worried (and this worry was justified) that they might exploit the situation for the sexual abuse of their pupils. In the course of treatment at the Institute for Sexual Medicine of the Charité University Clinic of Berlin the patient has changed their professional field so that they are mainly involved in the treatment of grown-ups. […]

SMILES	frequency of obsessive sexual desire (obsessive sexual desire)	sexual interest in the child ([1]; patient 1 (marked expression of symptoms))	sexual interest in child one ([1]; patient 2 (moderate expression of symptoms))
O=C1CC[C@@]2(O)[C@H]3Cc4ccc(O)c5c4[C@@]2(CCN3CC2CC2)C1O5 (stereo partly drawn) [Naltrexon, 17-cyclopropylmethyl-3,14-dihydroxy-4,5-epoxy-morphinan-6-on]	reduction in frequency of obsessive sexual desire could be observed	–	–
C=CCN1CC[C@]23c4c5ccc(O)c4O[C@H]2C(=O)CC[C@@]3(O)[C@H]1C5 [naloxone, 17-allyl-3,14-dihydroxy-4,5-epoxy-morphinan-6-on]	–	sufficient reduction of their sexual interest in the child	reduction of their sexual interest in child one
